In US9890185B2, “Urea derivatives useful as kinase inhibitors” (Respivert Limited, priority 2013, dated 2018) one finds IC50 and inhibition data, which are given here for 10 compounds.

The term IC50 denotes the concentration needed to halve the response being measured. Usually inhibition stands for the relative decrease from the control value, in per cent.

For one assay, the target named is c-Src (Homo sapiens (Human), UniProt P12931). Put plainly: c-Src enzyme inhibition (FRET, Z-LYTE). It counts as biochemical. The method, boiled down:
(§1)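 Enzyme (c-Src 3000 ng/mL, Syk 2000 ng/mL, as added solutions) was preincubated with compound for 2 hr at RT, then FRET peptide and ATP (added solution 800 μM for c-Src, 60 μM for Syk) for 1 hr. Protease development 1 hr; coumarin/fluorescein emission ratio gave % inhibition, IC50 from concentration-response.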

In assay [1] the test system is PBMCs. Put plainly: IL-2 release in CD3/CD28 stimulated PBMC cells (assay c). Particulars: Homo sapiens, read-out: IC50 Values for Inhibition of Cytokine Release, PBMCs IL-2. It counts as cell-based. The method, boiled down:
(§2)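 Healthy-donor PBMCs (density-gradient isolated) stimulated on plates pre-coated with anti-CD3 (0.3 μg/mL) and anti-CD28 (3 μg/mL), with compound, for 3 days under normal culture conditions. IL-2 and IFN gamma in supernatants measured by sandwich ELISA; IC50 from dose-response curve.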

For another assay, the target named is Syk (Homo sapiens (Human), UniProt P43405). Put plainly: Syk enzyme inhibition (FRET, Z-LYTE). It counts as biochemical. The procedure, abridged:
as §1

Assay [2] deals with PBMCs. Put plainly: LPS-induced IL-8 release in PBMC cells (assay b). It counts as cell-based, human. Particulars: Homo sapiens, PBMC; LPS-stimulated PBMCs; read-out: IC50 Values for Inhibition of Cytokine Release, PBMCs IL-8. The method, boiled down: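 Human PBMCs from healthy donors, isolated by density gradient, were pretreated with compound for 2 h and then stimulated with 1 ng/mL LPS (E. coli 0111:B4) for 24 h at 37° C, 5% CO2. Supernatant IL-8 and TNFα were measured by sandwich ELISA, and IC50 was taken from the dose-response curve.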

Assay [3] deals with p38 MAPKα isoform (MAPK14) (Homo sapiens (Human), UniProt Q16539). Put plainly: p38 MAPKα enzyme inhibition (FRET, Z-LYTE, Method 2). It counts as biochemical. The procedure, abridged:
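Z-LYTE FRET: p38 MAPKα (80 ng/mL for Method 1, 200 ng/mL for Method 2, pre-dilution) preincubated 2 hr RT with compound (4–0.004 μg/mL solutions), activity read via MAPKAP-K2 phosphorylation after 1 hr RT and 1 hr protease development. Coumarin/fluorescein ratio gives phosphorylation; % inhibition versus uninhibited control, IC50 from concentration-response curve.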

Assay [4] concerns PBMCs. Put plainly: IFN gamma release in CD3/CD28 stimulated PBMC cells (assay c). Particulars: Homo sapiens, read-out: IC50 Values for Inhibition of Cytokine Release, PBMCs IFNγ. It counts as cell-based. The method, boiled down: as §2
The target in a further assay is GSK 3α (Homo sapiens (Human), UniProt P49840). Put plainly: GSK 3α enzyme inhibition (FRET, Z-LYTE, Method 2). It counts as biochemical. Particulars: read-out: IC50 Values for Enzyme Inhibition, GSK3α. The method, boiled down: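 Phosphorylation of a dual-labelled synthetic peptide by human GSK3α is read as a coumarin/fluorescein ratio after protease development. Compound stocks run 4 to 0.004 μg/mL, and ATP stock is 40 μM.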
Sequence of GSK 3α (P49840 whole entry): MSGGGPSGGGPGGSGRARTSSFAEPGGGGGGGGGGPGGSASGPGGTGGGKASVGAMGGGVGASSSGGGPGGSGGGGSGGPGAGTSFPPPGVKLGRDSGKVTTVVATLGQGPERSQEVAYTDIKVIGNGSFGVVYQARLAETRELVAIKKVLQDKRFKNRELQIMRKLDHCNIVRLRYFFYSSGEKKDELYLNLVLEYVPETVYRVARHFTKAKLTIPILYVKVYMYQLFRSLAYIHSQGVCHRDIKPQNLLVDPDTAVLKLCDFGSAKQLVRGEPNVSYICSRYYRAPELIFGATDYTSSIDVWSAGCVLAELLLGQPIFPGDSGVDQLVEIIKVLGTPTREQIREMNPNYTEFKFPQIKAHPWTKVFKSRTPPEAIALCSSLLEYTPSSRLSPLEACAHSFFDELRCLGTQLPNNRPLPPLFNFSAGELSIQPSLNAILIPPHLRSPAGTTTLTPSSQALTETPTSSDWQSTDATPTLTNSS

Assay [5] relates to PBMCs. Put plainly: Cell mitosis assay in PBMCs (assay g). It counts as cell-based. Particulars: Homo sapiens, PBMC, test compound 5 μg/mL. The procedure, abridged:
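Human PBMCs from healthy donors, stimulated with 2% PHA for 48 hr, then exposed to test compounds for 20 hr, with demecolcine (0.1 μg/mL) added 2 hr before harvest. Cells fixed/permeabilised, stained for phospho-histone 3 and propidium iodide, and read by flow cytometry gated on lymphocytes. % mitosis inhibition vs 0.5% DMSO vehicle.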

Where only a bound is given, the exact number is not on record here.

Sequence of p38 MAPKα isoform (MAPK14) (Q16539 whole entry, canonical isoform): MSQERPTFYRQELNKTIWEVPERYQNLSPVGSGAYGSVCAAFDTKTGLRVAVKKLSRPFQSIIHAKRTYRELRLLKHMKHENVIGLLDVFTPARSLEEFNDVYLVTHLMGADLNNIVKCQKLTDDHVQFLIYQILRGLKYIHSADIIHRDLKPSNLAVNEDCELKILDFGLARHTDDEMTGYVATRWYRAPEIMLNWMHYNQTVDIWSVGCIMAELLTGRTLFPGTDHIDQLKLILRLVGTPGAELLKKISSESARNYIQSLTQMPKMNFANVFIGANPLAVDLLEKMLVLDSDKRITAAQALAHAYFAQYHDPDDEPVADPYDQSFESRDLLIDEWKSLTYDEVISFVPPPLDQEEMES
Sequence of c-Src (P12931 whole entry, looked up): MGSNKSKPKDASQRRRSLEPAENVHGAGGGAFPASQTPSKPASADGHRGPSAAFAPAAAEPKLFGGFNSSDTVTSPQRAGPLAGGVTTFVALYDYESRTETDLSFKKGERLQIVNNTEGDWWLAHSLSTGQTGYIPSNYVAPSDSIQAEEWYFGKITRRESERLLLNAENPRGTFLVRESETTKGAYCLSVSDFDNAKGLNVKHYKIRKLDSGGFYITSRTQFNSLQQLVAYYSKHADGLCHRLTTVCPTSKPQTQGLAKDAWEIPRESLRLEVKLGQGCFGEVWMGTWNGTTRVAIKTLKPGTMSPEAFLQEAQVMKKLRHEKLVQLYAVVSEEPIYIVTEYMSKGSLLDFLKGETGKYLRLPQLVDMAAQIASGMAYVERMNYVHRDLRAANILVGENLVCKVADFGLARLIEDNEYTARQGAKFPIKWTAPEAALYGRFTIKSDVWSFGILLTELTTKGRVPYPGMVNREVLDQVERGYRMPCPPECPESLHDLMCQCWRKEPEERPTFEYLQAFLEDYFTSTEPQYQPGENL

On to `COc1cc(Nc2cc(Oc3ccc(NC(=O)Nc4cc(C(C)(C)C)cc(C(=O)NCCN5CCOCC5)c4OC)c4ccccc34)ccn2)cc(C(=O)NCCN2CCOCC2)c1` [Example 60, 5-(tert-Butyl)-2-methoxy-3-(3-(4-((2-((3-methoxy-5-((2-morpholinoethyl)carbamoyl)phenyl)amino)pyridin-4-yl)oxy)naphthalen-1-yl)ureido)-N-(2-morpholinoethyl)benzamide], for which the 50% inhibitory concentration (IC50) against c-Src stood at 35 nM; in the assay with PBMCs [1], 101 nM; at Syk, 206 nM; with PBMCs [2], 2.4 nM; in assay [3], 128 nM; in the assay on PBMCs [4] it was 7 nM. Besides, the 50% inhibitory concentration (IC50) at GSK 3α came out at 1700 nM. Moreover, in the assay on PBMCs [5], the inhibition at 5 µg/mL is 47.5%.

Take `COc1cc(Nc2cc(Oc3ccc(NC(=O)Nc4cc(C(C)(C)C)cc(C(=O)NCCN5CCOCC5)c4OC)c4ccccc34)ccn2)cc(OC)c1` [Example 62, 5-(tert-Butyl)-3-(3-(4-((2-((3,5-dimethoxyphenyl)amino)pyridin-4-yl)oxy)naphthalen-1-yl)ureido)-2-methoxy-N-(2-morpholinoethyl)benzamide]: the IC50 against c-Src came out at 105 nM; in the assay with PBMCs [1] it was 24.9 nM; against Syk, 145 nM; with PBMCs [2] it was 2.4 nM; in assay [3], 482 nM; in the assay with PBMCs [4], 4.8 nM. For the same compound, at GSK 3α, the IC50 was > 11400 nM. In addition, in the assay on PBMCs [5], the inhibition at 5 µg/mL came out at 54.1%.

Consider `COc1cccc(Nc2cc(Oc3ccc(NC(=O)Nc4cc(C(C)(C)C)cc(C(=O)NCCN5CCOCC5)c4OC)c4ccccc34)ccn2)c1` [Example 63, 5-(tert-Butyl)-2-methoxy-3-(3-(4-((2-((3-methoxyphenyl)amino)pyridin-4-yl)oxy)naphthalen-1-yl)ureido)-N-(2-morpholinoethyl)benzamide], for which the IC50 against c-Src was found to be 98 nM; in the assay on PBMCs [1], 17.5 nM; against Syk, 154 nM; in the assay on PBMCs [2], 2.5 nM; in assay [3] it was 811 nM; in the assay with PBMCs [4], 7.7 nM. For the same compound, at GSK 3α, the IC50 was 7660 nM. The inhibition at 5 µg/mL in the assay with PBMCs [5] was 45.1%.

Turning to `COc1cc(Nc2cc(Oc3ccc(NC(=O)Nc4cc(C(C)(C)C)cc(C(=O)NCCN5CC[S+]([O-])CC5)c4OC)c4ccccc34)ccn2)cc(OC)c1` [Example 64, 5-(tert-Butyl)-3-(3-(4-((2-((3,5-dimethoxyphenyl)amino)pyridin-4-yl)oxy)naphthalen-1-yl)ureido)-2-methoxy-N-(2-(1-oxidothiomorpholino)ethyl)benzamide], the half-maximal inhibitory concentration (IC50) against c-Src was 90 nM; with PBMCs [1], 62.7 nM; against Syk, 156 nM; in the assay with PBMCs [2] it was 2.6 nM; in assay [3], 945 nM; in the assay on PBMCs [4], 13.3 nM. Also, the IC50 on GSK 3α worked out at 9390 nM. Besides, in the assay with PBMCs [5], the inhibition at 5 µg/mL stood at 32.4%.

Turning to `COc1cc(Nc2cc(Oc3ccc(NC(=O)Nc4cc(C(C)(C)C)cc(CC(N)=O)c4OC)c4ccccc34)ccn2)cc(C(=O)NCCN2CC[S+]([O-])CC2)c1` [Example 65, 3-((4-((4-(3-(3-(2-Amino-2-oxoethyl)-5-(tert-butyl)-2-methoxyphenyl)ureido)naphthalen-1-yl)oxy)pyridin-2-yl)amino)-5-methoxy-N-(2-(1-oxidothiomorpholino)ethyl)benzamide], the IC50 against c-Src came out at 15 nM; in the assay with PBMCs [1] it was 31.3 nM; at Syk it was 190 nM; in the assay with PBMCs [2], 4.3 nM; in assay [3] it was 17 nM; in the assay on PBMCs [4], 7.6 nM. Besides, the half-maximal inhibitory concentration (IC50) on GSK 3α turned out to be 1220 nM. The inhibition at 5 µg/mL in the assay on PBMCs [5] was found to be 8.7%.

Turning to `COc1cc(Nc2cc(Oc3ccc(NC(=O)Nc4cc(C(C)(C)C)cc(OC(CO)CO)c4OC)c4ccccc34)ccn2)cc(C(N)=O)c1` [Example 66, 3-((4-((4-(3-(5-(tert-Butyl)-3-((1,3-dihydroxypropan-2-yl)oxy)-2-methoxyphenyl)ureido)naphthalen-1-yl)oxy)pyridin-2-yl)amino)-5-methoxybenzamide], the IC50 on c-Src came out at 54 nM; with PBMCs [1], 60.9 nM; against Syk, 918 nM; with PBMCs [2], 2.2 nM; in assay [3], 222 nM; in the assay with PBMCs [4], 7.7 nM. Besides, on GSK 3α, the IC50 turned out to be 4280 nM. Moreover, the inhibition at 5 µg/mL in the assay on PBMCs [5] was 46.4%.

`COc1cc(Nc2cc(Oc3ccc(NC(=O)Nc4cc(C(C)(C)C)cc(CC(N)=O)c4OC)c4ccccc34)ccn2)cc(C(=O)NCCCN2CC[S+]([O-])CC2)c1` [Example 68, 3-((4-((4-(3-(3-(2-Amino-2-oxoethyl)-5-(tert-butyl)-2-methoxyphenyl)ureido)naphthalen-1-yl)oxy)pyridin-2-yl)amino)-5-methoxy-N-(3-(1-oxidothiomorpholino)propyl)benzamide]: the 50% inhibitory concentration (IC50) was determined as 18 nM on c-Src; 40.6 nM in the assay with PBMCs [1]; 143 nM at Syk; 3.8 nM in the assay with PBMCs [2]; 13 nM in assay [3]; 8 nM with PBMCs [4]. In addition, the IC50 on GSK 3α amounted to 1320 nM. Also, the inhibition at 5 µg/mL with PBMCs [5] is -0.6%.

For the compound `COc1cc(Nc2cc(Oc3ccc(NC(=O)Nc4cc(C(C)(C)C)cc([S+](C)[O-])c4OC)c4ccccc34)ccn2)cc(C(=O)NCCN2CC[S+]([O-])CC2)c1` (centres unmarked) [Example 69, 3-((4-((4-(3-(5-(tert-Butyl)-2-methoxy-3-(methylsulfinyl)phenyl)ureido)naphthalen-1-yl)oxy)pyridin-2-yl)amino)-5-methoxy-N-(2-(1-oxidothiomorpholino)ethyl)benzamide], the half-inhibitory concentration (IC50) at c-Src is 12 nM; in the assay with PBMCs [1], 75.7 nM; against Syk, 124 nM; with PBMCs [2], 2.3 nM; in assay [3], 16 nM; in the assay on PBMCs [4], 7.6 nM. On GSK 3α, the half-maximal inhibitory concentration (IC50) is 1960 nM. The inhibition at 5 µg/mL in the assay on PBMCs [5] is 8.9%.

Turning to `COc1cc(Nc2cc(Oc3ccc(NC(=O)Nc4cc(C(C)(C)C)cc(CNC(C)=O)c4OC)c4ccccc34)ccn2)cc(C(=O)NCCN2CC[S+]([O-])CC2)c1` [Example 71, 3-((4-((4-(3-(3-(Acetamidomethyl)-5-(tert-butyl)-2-methoxyphenyl)ureido)naphthalen-1-yl)oxy)pyridin-2-yl)amino)-5-methoxy-N-(2-(1-oxidothiomorpholino)ethyl)benzamide], the IC50 on c-Src came out at 14 nM; in the assay on PBMCs [1] it was 33.7 nM; against Syk, 26 nM; with PBMCs [2] it was 3.4 nM; in assay [3] it was 25 nM; in the assay with PBMCs [4], 7.2 nM. In addition, the IC50 on GSK 3α was found to be 1200 nM. For the same compound, the inhibition at 5 µg/mL with PBMCs [5] came to 48.3%.

Turning to `COc1cc(Nc2cc(Oc3ccc(NC(=O)Nc4cc(C(C)(C)C)cc(P(C)(C)=O)c4OC)c4ccccc34)ccn2)cc(S(=O)(=O)N(C)CCN2CCOCC2)c1` [Example 75, 3-((4-((4-(3-(5-(tert-Butyl)-3-(dimethylphosphoryl)-2-methoxyphenyl)ureido)naphthalen-1-yl)oxy)pyridin-2-yl)amino)-5-methoxy-N-methyl-N-(2-morpholinoethyl)benzenesulfonamide], the IC50 against c-Src is 78 nM; in the assay on PBMCs [1], 115 nM; on Syk, > 1100 nM; in the assay with PBMCs [2], 1.6 nM; in assay [3] it was 134 nM; in the assay on PBMCs [4], 3 nM. Also, the IC50 at GSK 3α turned out to be 2320 nM. For the same compound, the inhibition at 5 µg/mL in the assay with PBMCs [5] was 13.9%.
